Entries after “also recorded” stand apart in the source; their conditions may differ.
How the values were obtained:
cereblon (CRBN) = cereblon (CRBN) (Homo sapiens, UniProt Q96SW2); experiment: AlphaScreen assay, cereblon (CRBN); assay type: binding
Source text: An AlphaLISA® assay for EP300 catalytic function (FIG. 3B) and an AlphaScreen™ assay for EP300 bromodomain and cereblon (CRBN) using biotinylated tagged small molecules as a probe for EP300 bromodomain and CRBN, respectively, were developed (FIG. 3C).
AlphaScreen™ assay was used to determine the binding of inventive degrader compound toward both CRBN and HAT domain.

[1] = in mice; cited from earlier work
Kelly NB cells = experiment: EP300/CBP inhibitors in Kelly NB cells (colony formation, CellTiter-Glo growth assays); assay type: cell-based
Description: The effects of several EP300/CBP inhibitors, C646, CBP30 and A485 were tested in Kelly NB cells. (FIG. 2B).

HAT (EP300) domain = molecular target: T1, HAT (EP300) domain (Homo sapiens, UniProt Q09472); experiment: AlphaScreen assay, HAT (EP300) domain; assay type: binding
T1 sequence (Q09472 1287-1663 limits assumed): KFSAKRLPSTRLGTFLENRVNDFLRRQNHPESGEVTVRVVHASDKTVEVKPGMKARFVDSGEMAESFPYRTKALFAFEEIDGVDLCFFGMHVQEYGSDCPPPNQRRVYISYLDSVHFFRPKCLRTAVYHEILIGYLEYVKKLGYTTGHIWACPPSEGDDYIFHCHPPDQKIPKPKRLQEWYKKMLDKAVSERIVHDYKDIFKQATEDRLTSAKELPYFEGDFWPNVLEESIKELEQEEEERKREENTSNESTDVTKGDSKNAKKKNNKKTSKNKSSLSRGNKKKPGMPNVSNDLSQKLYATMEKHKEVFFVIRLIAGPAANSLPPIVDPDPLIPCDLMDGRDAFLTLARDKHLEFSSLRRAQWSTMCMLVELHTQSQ
Description: The AlphaScreen™ assay was performed in 384-well plate format using white AlphaPlate (PerkinElmer®, USA), and transfer of pre-diluted compound (100 nL) was performed using a Janus Workstation (PerkinElmer®, USA). All subsequent steps were carried out in assay buffer (50 mM 4-(2-hydroxyethyl)-1-piperazineethanesulfonic acid (HEPES), pH 7.5, 0.1% (wt/vol) bovine serum albumin (BSA) and 0.01% (vol/vol) Tween-20). In brief, 10 μL of assay buffer containing enzyme (2 nM Final) was pre-incubated for 15 min with dilutions of compound. The enzyme reaction was initiated by the addition of substrate (5 μL) consisting of acetyl Co-A 2-OG (5 μM Final).
FAS final concentration was 10 μM. Histone tail-GGK Biotin final concentration was 100 nM Final. The enzyme reaction was allowed to proceed for 30 minutes and was stopped by the addition of 5 μL of assay buffer containing ethylenediaminetetraacetic acid (EDTA) (40 mM) and NaCl (1200 mM). The final concentration of dimethyl sulfoxide (DMSO) was 1%. Streptavidin donor beads (0.08 mg/mL) and protein-A-conjugated acceptor beads (0.08 mg/mL) were preincubated for 1 h with antibody to methyl mark (300 ng/mL Final), and the presence of histone H3 product acetylation mark was detected using the preincubated AlphaScreen™ beads (5 μL). Detection was allowed to proceed for 2 hours at rt, and the assay plates were read on the Envision™ 2104 plate reader. Data were normalized to the (no-enzyme) control, and the IC50 values were determined via nonlinear regression curve fit using GraphPad Prism (FIG. 4E-FIG. 4H).
AlphaScreen™ assay was used to determine the binding of inventive degrader compound toward both CRBN and HAT domain. The experimental protocol is the same as in Example 26.

Kelly cells = experiment: ATPlite cell growth inhibition assay, Kelly cell lines treated 72 hours; assay type: cell-based; conditions: for Kelly NB cell growth inhibition: 72 hours, ATPlite, normalized to DMSO; for IC50: ND: not detected
Description: Compounds CPD 1 to CPD 22 were tested via ATPlite™ assay (ATPlite™ 1000 assay kit, PerkinElmer®, USA) using standard protocol. […] The signal is normalized to DMSO treated cells.

Chain of cereblon (CRBN) (Q96SW2 whole entry): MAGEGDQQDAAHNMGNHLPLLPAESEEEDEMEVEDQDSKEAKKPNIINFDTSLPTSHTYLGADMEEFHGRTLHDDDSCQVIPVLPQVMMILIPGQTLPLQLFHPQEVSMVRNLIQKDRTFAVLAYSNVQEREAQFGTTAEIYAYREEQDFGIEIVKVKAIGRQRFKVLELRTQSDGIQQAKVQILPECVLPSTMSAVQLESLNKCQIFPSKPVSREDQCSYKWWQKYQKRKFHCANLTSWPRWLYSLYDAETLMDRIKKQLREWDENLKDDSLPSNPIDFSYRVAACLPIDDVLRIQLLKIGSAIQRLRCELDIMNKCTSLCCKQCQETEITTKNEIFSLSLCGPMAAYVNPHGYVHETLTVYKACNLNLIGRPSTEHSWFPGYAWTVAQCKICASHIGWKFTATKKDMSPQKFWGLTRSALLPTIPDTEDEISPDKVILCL

binding to cereblon (CRBN) (cereblon (CRBN))	SMILES	Kelly NB cell growth inhibition (Kelly cells)	IC50 (Kelly cells) [µM]	also measured
bind	O=C1CCC(N2C(=O)c3ccccc3C2=O)C(=O)N1 (stereo not shown) [thalidomide, reference compound]			
bind	C[C@H](N(Cc1ccc(F)cc1)C(=O)CN1C(=O)O[C@@]2(CCc3cc(NC(=O)CCOCCOCCOCCOCCOCCOCCNc4cccc5c4C(=O)N(C4CCC(=O)NC4=O)C5=O)ccc32)C1=O)C(F)(F)F (stereo partly drawn) [CPD 2, 1-((2-(2,6-dioxopiperidin-3-yl)-1,3-dioxoisoindolin-4-yl)amino)-N—((R)-3′-(2-((4-fluorobenzyl)((S)-1,1,1-trifluoropropan-2-yl)amino)-2-oxoethyl)-2′,4′-dioxo-2,3-dihydrospiro[indene-1,5′-oxazolidin]-5-yl)-3,6,9,12,15,18-hexaoxahenicosane-21-amide]	did not inhibit cellular growth	3.42	binding to HAT (EP300) domain (HAT (EP300) domain): bind
	CC(=O)Nc1ccc2c(c1)CC[C@@]21OC(=O)N(CC(=O)N(Cc2ccc(F)cc2)[C@@H](C)CNC(=O)CCCCCCCCCCCNc2ccc3c(c2)C(=O)N(C2CCC(=O)NC2=O)C3=O)C1=O (stereo partly drawn) [CPD 16, N—((S)-2-(2-((R)-5-acetamido-2′,4′-dioxo-2,3-dihydrospiro[indene-1,5′-oxazolidin]-3′-yl)-N-(4-fluorobenzyl)acetamido)propyl)-12-((2-(2,6-dioxopiperidin-3-yl)-1,3-dioxoisoindolin-5-yl)amino)dodecanamide]	outperformed positive control A485; also recorded: Cell growth inhibition was observed	0.27	
	CC(=O)Nc1ccc2c(c1)CC[C@@]21OC(=O)N(CC(=O)N(Cc2ccc(F)cc2)[C@H](C)CNC(=O)CCCCCCCCCCCNc2ccc3c(c2)C(=O)N(C2CCC(=O)NC2=O)C3=O)C1=O (stereo partly drawn) [CPD 15, N—((R)-2-(2-((R)-5-acetamido-2′,4′-dioxo-2,3-dihydrospiro[indene-1,5′-oxazolidin]-3′-yl)-N-(4-fluorobenzyl)acetamido)propyl)-12-((2-(2,6-dioxopiperidin-3-yl)-1,3-dioxoisoindolin-5-yl)amino)dodecanamide]	Cell growth inhibition was observed	1.76	
	CC(N(Cc1ccc(F)cc1)C(=O)CN1C(=O)O[C@@]2(CCc3cc(NC(=O)CCCNC(=O)CCCCCNc4ccc5c(c4)C(=O)N(C4CCC(=O)NC4=O)C5=O)ccc32)C1=O)C(F)(F)F (stereo in doubt) [CPD 10, 6-((2-(2,6-dioxopiperidin-3-yl)-1,3-dioxoisoindolin-5-yl)amino)-N-(4-(((R)-3′-(2-((4-fluorobenzyl)((R)-1,1,1-trifluoropropan-2-yl)amino)-2-oxoethyl)-2′,4′-dioxo-2,3-dihydrospiro[indene-1,5′-oxazolidin]-5-yl)amino)-4-oxobutyl)hexanamide]	Cell growth inhibition was observed	1.15	
bind	Nc1cccc2c1C(=O)N(C1CCC(=O)NC1=O)C2=O (stereo not shown) [pomalidomide, reference compound]			
	C[C@H](N(Cc1ccc(F)cc1)C(=O)CN1C(=O)O[C@@]2(CCc3cc(NC(=O)CCc4ccc(NC(=O)CCCCCCCCCCCNc5ccc6c(c5)C(=O)N(C5CCC(=O)NC5=O)C6=O)cc4)ccc32)C1=O)C(F)(F)F (stereo partly drawn) [CPD 13, 12-((2-(2,6-dioxopiperidin-3-yl)-1,3-dioxoisoindolin-5-yl)amino)-N-(4-(3-(((R)-3′-(2-((4-fluorobenzyl)((S)-1,1,1-trifluoropropan-2-yl)amino)-2-oxoethyl)-2′,4′-dioxo-2,3-dihydrospiro[indene-1,5′-oxazolidin]-5-yl)amino)-3-oxopropyl)phenyl)dodecanamide]	Cell growth inhibition was observed	1.39	
	C[C@H](N(Cc1ccc(F)cc1)C(=O)CN1C(=O)O[C@@]2(CCc3cc(NC(=O)CCCNC(=O)CCCCCCCCCCCNc4ccc5c(c4)C(=O)N(C4CCC(=O)NC4=O)C5=O)ccc32)C1=O)C(F)(F)F (stereo partly shown)	outperformed positive control A485; also recorded: Cell growth inhibition was observed	0.31	

SMILES	binding to cereblon (CRBN) (cereblon (CRBN))	Kelly NB cell growth inhibition (Kelly cells)	IC50 (Kelly cells) [µM]	also measured
CNC(=O)Nc1ccc2c(c1)CC[C@@]21OC(=O)N(CC(=O)N(Cc2ccc(F)cc2)[C@@H](C)C(F)(F)F)C1=O [A485, N-[(4-fluorophenyl)methyl]-2-{(1R)-5-[(methylcarbamoyl)amino]-2′,4′-dioxo-2,3-dihydro-3′H-spiro[indene-1,5′-[1,3]oxazolidin]-3′-yl}-N-[(2S)-1,1,1-trifluoropropan-2-yl]acetamide]	no binding was observed			half life [1]: 42 min; apoptosis (Kelly NB cells; Kelly NB cells, increasing doses): induction of apoptosis; growth inhibition (Kelly NB cells; Kelly NB cells, increasing doses, CellTiter-Glo): growth inhibition; growth changes in cellular models of NB compared with C646 and CBP30 (Kelly NB cells; at submicromolar levels): superior to other known EP300/CBP inhibitors; binding to HAT (EP300) domain (HAT (EP300) domain): bind
